Data published in the NIST ThermoML archive (doi:10.1016/j.jct.2013.08.030).
± gives the expanded uncertainty stated by the source.

Assay: activity coefficient (dimensionless); of the first substance listed, at infinite dilution; xn = mol fraction of the nth substance listed
Conditions: 101 kPa, Liquid, Chromatography, x1 = 0

SMILES	activity coefficient (318.15 K)	activity coefficient (328.15 K)	activity coefficient (338.15 K)	activity coefficient (348.15 K)	activity coefficient (358.15 K)	activity coefficient (368.15 K)
CCCC(C)=O [pentan-2-one] + CCCC[N+]1(C)CCOCC1.N#C[C-](C#N)C#N	1.44 ± 0.09	1.47 ± 0.1	1.49 ± 0.1	1.5 ± 0.1	1.53 ± 0.1	1.54 ± 0.1
C1COCCO1 [1,4-dioxane] + CCCC[N+]1(C)CCOCC1.N#C[C-](C#N)C#N	0.707 ± 0.047	0.74 ± 0.049	0.772 ± 0.05	0.798 ± 0.052	0.831 ± 0.054	0.853 ± 0.055
CCCCC [pentane] + CCCC[N+]1(C)CCOCC1.N#C[C-](C#N)C#N	39.7 ± 2.7	35.5 ± 2.4	32.2 ± 2.2	29.8 ± 2	27.7 ± 1.9	26.2 ± 1.8
COC(C)=O [methyl ethanoate] + CCCC[N+]1(C)CCOCC1.N#C[C-](C#N)C#N	1.2 ± 0.08	1.23 ± 0.08	1.24 ± 0.08	1.26 ± 0.08	1.29 ± 0.08	1.3 ± 0.08
C#CCCCC [1-hexyne] + CCCC[N+]1(C)CCOCC1.N#C[C-](C#N)C#N	5.47 ± 0.37	5.5 ± 0.37	5.5 ± 0.37	5.54 ± 0.38	5.53 ± 0.38	5.51 ± 0.38
C#CCCC [1-pentyne] + CCCC[N+]1(C)CCOCC1.N#C[C-](C#N)C#N	3.69 ± 0.25	3.73 ± 0.25	3.75 ± 0.26	3.8 ± 0.26	3.81 ± 0.26	3.83 ± 0.26
CCC(C)CC [3-methylpentane] + CCCC[N+]1(C)CCOCC1.N#C[C-](C#N)C#N	51.3 ± 3.5	46 ± 3.1	42.3 ± 2.9	38.9 ± 2.7	36.3 ± 2.5	33.5 ± 2.3
CCCOCCC [dipropyl ether] + CCCC[N+]1(C)CCOCC1.N#C[C-](C#N)C#N	16.4 ± 1.1	15.9 ± 1.1	15.4 ± 1.1	14.9 ± 1	14.4 ± 1	13.9 ± 1
Cc1ccccc1C [1,2-dimethylbenzene] + CCCC[N+]1(C)CCOCC1.N#C[C-](C#N)C#N	2.96 ± 0.2	2.99 ± 0.2	3.02 ± 0.21	3.04 ± 0.21	3.07 ± 0.21	3.08 ± 0.21
CCCCCCC [heptane] + CCCC[N+]1(C)CCOCC1.N#C[C-](C#N)C#N	84 ± 5.8	76.8 ± 5.3	69.6 ± 4.8	63.3 ± 4.3	58.7 ± 4	53.7 ± 3.7
C1CCCCC1 [cyclohexane] + CCCC[N+]1(C)CCOCC1.N#C[C-](C#N)C#N	22.6 ± 1.5	20.8 ± 1.4	19.3 ± 1.3	18 ± 1.2	16.9 ± 1.2	16 ± 1.1
CCOC(C)=O [ethyl acetate] + CCCC[N+]1(C)CCOCC1.N#C[C-](C#N)C#N	1.88 ± 0.13	1.9 ± 0.13	1.92 ± 0.13	1.93 ± 0.13	1.96 ± 0.13	1.98 ± 0.13
CCCC=O [butanal] + CCCC[N+]1(C)CCOCC1.N#C[C-](C#N)C#N	1.2 ± 0.08	1.24 ± 0.08	1.26 ± 0.08	1.3 ± 0.08	1.33 ± 0.09	1.35 ± 0.09
CCc1ccccc1 [ethylbenzene] + CCCC[N+]1(C)CCOCC1.N#C[C-](C#N)C#N	3.74 ± 0.25	3.74 ± 0.25	3.75 ± 0.26	3.75 ± 0.26	3.75 ± 0.26	3.75 ± 0.26
CC(C)OC(C)C [diisopropyl ether] + CCCC[N+]1(C)CCOCC1.N#C[C-](C#N)C#N	17.8 ± 1.2	17.4 ± 1.2	16.8 ± 1.1	16.5 ± 1.1	16 ± 1.1	15.6 ± 1.1
CCO [ethanol] + CCCC[N+]1(C)CCOCC1.N#C[C-](C#N)C#N	1.26 ± 0.08	1.19 ± 0.08	1.12 ± 0.07	1.06 ± 0.07	1.01 ± 0.06	0.965 ± 0.061
CC(C)(C)O [2-methylpropan-2-ol] + CCCC[N+]1(C)CCOCC1.N#C[C-](C#N)C#N	2 ± 0.14	1.88 ± 0.13	1.77 ± 0.12	1.69 ± 0.11	1.63 ± 0.11	1.58 ± 0.1
CCCCCC [hexane] + CCCC[N+]1(C)CCOCC1.N#C[C-](C#N)C#N	56.5 ± 3.9	51.1 ± 3.5	46.7 ± 3.2	43.2 ± 3	40.3 ± 2.8	37.2 ± 2.5

SMILES	activity coefficient (318.15 K)	activity coefficient (328.15 K)	activity coefficient (338.15 K)	activity coefficient (348.15 K)	activity coefficient (358.15 K)	activity coefficient (368.15 K)
C=C(C)c1ccccc1 [(1-methylethenyl)benzene] + CCCC[N+]1(C)CCOCC1.N#C[C-](C#N)C#N	2.8 ± 0.19	2.89 ± 0.2	2.99 ± 0.2	3.07 ± 0.21	3.15 ± 0.21	3.22 ± 0.22
C1CCCCCCC1 [cyclooctane] + CCCC[N+]1(C)CCOCC1.N#C[C-](C#N)C#N	37 ± 2.5	34.1 ± 2.3	31.2 ± 2.1	29.1 ± 2	27 ± 1.8	25.1 ± 1.7
c1ccncc1 [pyridine] + CCCC[N+]1(C)CCOCC1.N#C[C-](C#N)C#N	0.733 ± 0.049	0.748 ± 0.049	0.758 ± 0.05	0.766 ± 0.05	0.766 ± 0.05	0.788 ± 0.051
C=CCCCCCC [oct-1-ene] + CCCC[N+]1(C)CCOCC1.N#C[C-](C#N)C#N	52.7 ± 3.6	49.1 ± 3.4	45.7 ± 3.1	43 ± 2.9	40.6 ± 2.8	38.1 ± 2.6
c1ccsc1 [thiophene] + CCCC[N+]1(C)CCOCC1.N#C[C-](C#N)C#N	1.01 ± 0.06	1.04 ± 0.07	1.06 ± 0.07	1.08 ± 0.07	1.1 ± 0.07	1.12 ± 0.07
Cc1ccccc1 [toluene] + CCCC[N+]1(C)CCOCC1.N#C[C-](C#N)C#N	2.3 ± 0.16	2.33 ± 0.16	2.36 ± 0.16	2.38 ± 0.16	2.41 ± 0.16	2.43 ± 0.17
CCC(=O)OC [methyl propanoate] + CCCC[N+]1(C)CCOCC1.N#C[C-](C#N)C#N	1.64 ± 0.11	1.67 ± 0.11	1.7 ± 0.11	1.73 ± 0.12	1.76 ± 0.12	1.79 ± 0.12
CCCC(=O)OC [methyl butanoate] + CCCC[N+]1(C)CCOCC1.N#C[C-](C#N)C#N	2.42 ± 0.16	2.46 ± 0.17	2.49 ± 0.17	2.51 ± 0.17	2.54 ± 0.17	2.56 ± 0.17
CCCO [propan-1-ol] + CCCC[N+]1(C)CCOCC1.N#C[C-](C#N)C#N	1.62 ± 0.11	1.52 ± 0.1	1.43 ± 0.09	1.35 ± 0.09	1.29 ± 0.08	1.23 ± 0.08
CCC[N+](=O)[O-] [1-nitropropane] + CCCC[N+]1(C)CCOCC1.N#C[C-](C#N)C#N	0.982 ± 0.062	0.99 ± 0.062	0.998 ± 0.062	1 ± 0.06	1.01 ± 0.06	1.01 ± 0.06
CCC(C)(C)C [2,2-dimethylbutane] + CCCC[N+]1(C)CCOCC1.N#C[C-](C#N)C#N	56.7 ± 3.9	49.8 ± 3.4	44.5 ± 3	40.9 ± 2.8	37.7 ± 2.6	34.8 ± 2.4
CCCCO [butan-1-ol] + CCCC[N+]1(C)CCOCC1.N#C[C-](C#N)C#N	2.18 ± 0.15	2.04 ± 0.14	1.91 ± 0.13	1.79 ± 0.12	1.7 ± 0.11	1.61 ± 0.11
C#CCCCCC [1-heptyne] + CCCC[N+]1(C)CCOCC1.N#C[C-](C#N)C#N	8.28 ± 0.56	8.26 ± 0.56	8.2 ± 0.56	8.2 ± 0.56	8.13 ± 0.55	8.05 ± 0.55
CCCCCCCC [octane] + CCCC[N+]1(C)CCOCC1.N#C[C-](C#N)C#N	125 ± 9	113 ± 8	102 ± 7	93.4 ± 6.4	86.5 ± 5.9	78.6 ± 5.4
CC#N [acetonitrile] + CCCC[N+]1(C)CCOCC1.N#C[C-](C#N)C#N	0.617 ± 0.043	0.62 ± 0.043	0.624 ± 0.043	0.624 ± 0.043	0.629 ± 0.043	0.63 ± 0.044
C1CCCC1 [cyclopentane] + CCCC[N+]1(C)CCOCC1.N#C[C-](C#N)C#N	14.7 ± 1	13.7 ± 0.9	12.8 ± 0.9	12.1 ± 0.8	11.4 ± 0.8	10.9 ± 0.7
O [water] + CCCC[N+]1(C)CCOCC1.N#C[C-](C#N)C#N	1.03 ± 0.06	0.971 ± 0.061	0.916 ± 0.058	0.86 ± 0.055	0.819 ± 0.053	0.78 ± 0.051
CC(C)=O [acetone] + CCCC[N+]1(C)CCOCC1.N#C[C-](C#N)C#N	0.741 ± 0.049	0.75 ± 0.049	0.765 ± 0.05	0.774 ± 0.051	0.791 ± 0.051	0.798 ± 0.052
